System: chronic graft-versus-host disease (cGVHD)
Test: Example 1 phase IIa study: response per 2014 NIH cGVHD criteria (ORR, BOR, DOR, TTR, TTNT, FFS, OS, organ response)
Type: in vivo, human
Details: for DOR, median (95% CI) / TTR, median: responder population
Description: Eligible patients were allogeneic bone marrow transplant or allogeneic hematopoietic cell transplant (alloHCT) recipients of age≥18 years with persistent cGVHD manifestations after having received one to three prior systemic lines of therapy and who were receiving corticosteroid treatment with or without a calcincurin inhibitor and/or concurrent extracorporeal photopheresis.
Inclusion criteria. Adult male and female subjects at least 18 years of age who had allogenic bone marrow transplant or hematopoietic stem cell transplantation. Received glucocorticoid therapy and calcineurin therapy or glucocorticoid therapy alone for cGVHD at study entry. Participants on calcineurin therapy only, without glucocorticoid therapy, were not eligible. Participants also received other therapies thought not to be immunosuppressive (such as extracorporeal photopheresis; ECP), were considered for enrollment in this study on a case-by-case basis. […] No more than 3 prior lines of treatment for cGVHD. Karnofsky Performance Scale of greater than (>) 40.
Exclusion Criteria. Participant who was pregnant or breastfeeding. Received an investigational GVHD treatment within 28 days of study entry. Had acute GVHD. Taken any medication known to be a moderate or strong inhibitor of the cytochrome (CY) P3A4 isozyme or any drugs that are moderate or strong CYP3A4 inducers. History or other evidence of severe illness or any other conditions that would make the participant, in the opinion of the investigator, unsuitable for the study (such as poorly controlled psychiatric disease or coronary artery disease). Regular and excessive use of alcohol within the 6 months prior to study entry defined as alcohol intake>14 drinks per week in a man or >7 drinks per week in a woman. Approximately 10 grams of alcohol equals one “drink” unit. One unit equals 1 ounce of distilled spirits, one 12-ounce beer, or one 4-ounce glass of wine. Known history of human immunodeficiency virus or active hepatitis C virus or hepatitis B virus. Diagnosed with another malignancy (other than malignancy for which transplant was performed) within 3 years of enrollment, with the exception of completely resected basal cell or squamous cell carcinoma of the skin, resected in situ cervical malignancy, resected breast ductal carcinoma in situ, or low-risk prostate cancer after curative resection. Relapse of the underlying cancer or post-transplant lymphoproliferative disease at the time of screening. […] Taken other immunosuppressant drugs for GVHD, including mammalian target of rapamycin inhibitors (Note: Only steroids, calcineurin inhibitors, and ECP are acceptable). Corrected QT interval using Fridericia's formula >450 milliseconds.
(FIG. 1) Before enrollment of the subsequent cohort, safety data in each previous cohort were analyzed after eight patients reached two months of treatment to assure that there was no safety signal. […] No safety concerns were identified, allowing for planned dose escalation.
Progression was defined per the 2014 NIH cGVHD Consensus Criteria. Long-term follow-up was conducted every 8 weeks until study closeout. […] Screening was conducted within 28 days of the first study dose. Response was initially assessed after two cycles; however, this was amended to evaluate response on day 1 of each cycle, starting at cycle 2 day 1.
All responses were assessed by the investigators.
Assuming a best ORR of 25%, which was determined to be clinically meaningful, the study was expected to have approximately 90% probability to show a response in ≥2 patients per cohort. This study was not powered to show significant differences between cohorts with respect to efficacy, AEs, or PD analyses. The primary analysis was conducted using the safety population, defined as enrolled patients who received ≥1 dose of study medication. The Clopper-Pearson (exact) method was used to construct the two-sided 95% CI for ORR. The Kaplan-Meier (K-M) method was used to calculate estimates of FFS and OS. […]

SMILES: CC(C)NC(=O)COc1cccc(-c2nc(Nc3ccc4[nH]ncc4c3)c3ccccc3n2)c1 [Belumosudil, 2-{3-[4-(1H-indazol-5-ylamino)-2-quinazolinyl]phenoxy}-N-(propan-2-yl) acetamide]
- BOR CR, participants (%) (Cohort 1 200 mg QD): 0 (0%) participants
- BOR LOR-M, participants (%) (Cohort 1 200 mg QD): 2 (12%) participants
- BOR LOR-P, participants (%) (Cohort 1 200 mg QD): 2 (12%) participants
- BOR LOR-U, participants (%) (Cohort 1 200 mg QD): 2 (12%) participants
- BOR PR, participants (%) (Cohort 1 200 mg QD): 11 (65%) participants
- FFS, median (95% CI) (Cohort 1 200 mg QD): 11 (4-na* %) months
- ORR subgroup refractory to previous LOT, n/N (Cohort 1 200 mg QD): 7/11
- ORR subgroup severe cGVHD, n/N (Cohort 1 200 mg QD): 8/12
- ORR subgroup ≤2 prior LOTs, n/N (Cohort 1 200 mg QD): 10/15
- ORR subgroup ≤4 organs involved, n/N (Cohort 1 200 mg QD): 4/8
- ORR, % (95% CI) (Cohort 1 200 mg QD): 65%
- TTNT, median (95% CI) (Cohort 1 200 mg QD): 15 (5-NA* %) months
- best response (CR or PR) in Skin, percentage of participants (Cohort 1 200 mg QD): (23%)
- best response in Esophagus, percentage of participants (Cohort 1 200 mg QD): (50%)
- best response in Eyes, percentage of participants (Cohort 1 200 mg QD): (36%)
- best response in Joints and Fascia, percentage of participants (Cohort 1 200 mg QD): (55%)
- best response in Lower GI tract, percentage of participants (Cohort 1 200 mg QD): (0%)
- best response in Lungs, percentage of participants (Cohort 1 200 mg QD): (0%)
- best response in Mouth, percentage of participants (Cohort 1 200 mg QD): (46%)
- best response in Upper GI tract, percentage of participants (Cohort 1 200 mg QD): (100%)
- DOR, median (95% CI) (Cohort 1, 200 mg QD): 40 (8-na* %) weeks
- TTR, median (Cohort 1, 200 mg QD): 8.14 weeks
- BOR CR, participants (%) (Cohort 2 200 mg BID): 0 (0%) participants
- BOR LOR-M, participants (%) (Cohort 2 200 mg BID): 1 (6%) participants
- BOR LOR-P, participants (%) (Cohort 2 200 mg BID): 1 (6%) participants
- BOR LOR-U, participants (%) (Cohort 2 200 mg BID): 3 (19%) participants
- BOR PR, participants (%) (Cohort 2 200 mg BID): 11 (69%) participants
- FFS, median (95% CI) (Cohort 2 200 mg BID): 10 (4-19%) months
- ORR subgroup refractory to previous LOT, n/N (Cohort 2 200 mg BID): 6/9
- ORR subgroup severe cGVHD, n/N (Cohort 2 200 mg BID): 9/14
- ORR subgroup ≤2 prior LOTs, n/N (Cohort 2 200 mg BID): 5/8
- ORR subgroup ≤4 organs involved, n/N (Cohort 2 200 mg BID): 8/10
- ORR, % (95% CI) (Cohort 2 200 mg BID): 69%
- TTNT, median (95% CI) (Cohort 2 200 mg BID): 10 (4-19%) months
- best response (CR or PR) in Skin, percentage of participants (Cohort 2 200 mg BID): (17%)
- best response in Eyes, percentage of participants (Cohort 2 200 mg BID): (36%)
- best response in Joints and Fascia, percentage of participants (Cohort 2 200 mg BID): (46%)
- best response in Liver, percentage of participants (Cohort 2 200 mg BID): (50%)
- best response in Lower GI tract, percentage of participants (Cohort 2 200 mg BID): (100%)
- best response in Lungs, percentage of participants (Cohort 2 200 mg BID): (0%)
- best response in Mouth, percentage of participants (Cohort 2 200 mg BID): (46%)
- best response in Upper GI tract, percentage of participants (Cohort 2 200 mg BID): (100%)
- DOR, median (95% CI) (Cohort 2, 200 mg BID): 11 (2-35%) weeks
- TTR, median (Cohort 2, 200 mg BID): 8.14 weeks
- BOR CR, participants (%) (Cohort 3 400 mg QD): 0 (0%) participants
- BOR LOR-M, participants (%) (Cohort 3 400 mg QD): 0 (0%) participants
- BOR LOR-P, participants (%) (Cohort 3 400 mg QD): 1 (5%) participants
- BOR LOR-U, participants (%) (Cohort 3 400 mg QD): 4 (19%) participants
- BOR PR, participants (%) (Cohort 3 400 mg QD): 12 (57%) participants
- FFS, median (95% CI) (Cohort 3 400 mg QD): 10 (3-16%) months
- ORR subgroup refractory to previous LOT, n/N (Cohort 3 400 mg QD): 9/15
- ORR subgroup severe cGVHD, n/N (Cohort 3 400 mg QD): 8/16
- ORR subgroup ≤2 prior LOTs, n/N (Cohort 3 400 mg QD): 8/12
- ORR subgroup ≤4 organs involved, n/N (Cohort 3 400 mg QD): 7/9
- ORR, % (95% CI) (Cohort 3 400 mg QD): 62%
- TTNT, median (95% CI) (Cohort 3 400 mg QD): 14 (3-NA %) months
- best response (CR or PR) in Skin, percentage of participants (Cohort 3 400 mg QD): (13%)
- best response in Esophagus, percentage of participants (Cohort 3 400 mg QD): (25%)
- best response in Eyes, percentage of participants (Cohort 3 400 mg QD): (24%)
- best response in Joints and Fascia, percentage of participants (Cohort 3 400 mg QD): (42%)
- best response in Lower GI tract, percentage of participants (Cohort 3 400 mg QD): (0%)
- best response in Lungs, percentage of participants (Cohort 3 400 mg QD): (30%)
- best response in Mouth, percentage of participants (Cohort 3 400 mg QD): (46%)
- best response in Upper GI tract, percentage of participants (Cohort 3 400 mg QD): (50%)
- DOR, median (95% CI) (Cohort 3, 400 mg QD): 16 (4-38%) weeks
- TTR, median (Cohort 3, 400 mg QD): 8.07 weeks
- 2-year OS rate (Example 1): 82%
- 12-month FFS rate with response (Example 1): 24%
- ORR among patients with nonsevere cGVHD (Example 1): 83%
- median DOR across all responders (Example 1): 35 weeks
- share of all responses achieved by first response assessment at week 8 (Example 1): > 75%
- FFS rate (Example 1, at 6 months): 76%
- FFS rate (Example 1, at 12 months): 47%
- median TTNT (Example 1, pooled): 14 months
- patients with progression in joints (Example 1, safety population (FIG. 3B)): 11 patients
- ORR subgroup refractory to previous LOT, % (95% CI) (Total, N=54): 63%
- ORR subgroup severe cGVHD, % (95% CI) (Total, N=54): 60%
- ORR subgroup ≤2 prior LOTs, % (95% CI) (Total, N=54): 66%
- ORR subgroup ≤4 organs involved, % (95% CI) (Total, N=54): 70%
- ORR, % (95% CI) (Total, N=54): 65%
- ORR subgroup refractory to previous LOT, n/N (Total, N=54, listed as KD025): 22/35
- ORR subgroup severe cGVHD, n/N (Total, N=54, listed as KD025): 25/42
- ORR subgroup ≤2 prior LOTs, n/N (Total, N=54, listed as KD025): 23/35
- ORR subgroup ≤4 organs involved, n/N (Total, N=54, listed as KD025): 19/27

From US20260027116A1, “Methods of Treating Chronic Graft-Versus-Host Disease Following Allogeneic Hematopoietic Stem Cell Transplantation” (Kadmon Corporation, LLC, priority 2022, published 2026)
